Laboratory results from US20240325385A1, “ANTI-TUMOR PHARMACEUTICAL COMPOSITION COMPRISING EZH2 INHIBITOR AND SCD1 INHIBITOR AND USE THEREOF” (PEKING UNIVERSITY THIRD HOSPITAL, priority 2021, published 2024).
Entries after “also recorded” stand apart in the source; their conditions may differ.

Tests used:
melanoma cells B16F10 = experiment: Cell scratch (migration) assay, B16F10; assay type: cell-based; conditions: B16F10, 10 μM, 36 h of culture, vs control group
Method: (§1) FIG. 2: Melanoma cells B16F10 are less sensitive to GSK126. (A) Cell scratch assay, showing the effect of GSK126 (10 μM) treatment on the migration capability of B16F10 cells, with 3 replicates per group; (B-C) the effect of GSK126 (10, 13, and 15 μM) on the apoptosis rate of B16F10 cells, as examined by flow cytometry […] and Annexin V staining assay. 3 replicates were established for each group, with *P<0.05, **P<0.01, and ***P<0.001, and ns for no statistical difference.
(§2) Next, to further validate the effect of GSK126 at 10 μM on melanoma cells B16F10, scratch assay was conducted. […] In addition, to assess the anti-survival effect of GSK126, B16F10 cells were treated by GSK126 at different concentrations for different durations, and the apoptosis rate of the cells was analyzed by flow cytometry (section B of FIG. 2) and live-cell fluorescence imaging (section C of FIG. 2).

melanoma B16F10 cells [1] = experiment: Metabolite (fatty acid) levels in GSK126-treated B16F10 cells; assay type: cell-based; conditions: GSK126 group
Description: FIG. 3: GSK126 results in significant elevated levels of 6 fatty acids in melanoma B16F10 cells.
Among the metabolites with significant changes, the levels of many fatty acids increased in the GSK126 group. There are five polyunsaturated fatty acids, including α-linolenic acid, DHA, EPA, linoleic acid, and γ-linolenic acid) and one monounsaturated fatty acid, i.e., 10Z-heptadienoic acid (FIG. 3).

[2] = tested on: hematological tumor cells THP-1; experiment: CCK-8 cell proliferation/viability assay, THP-1; assay type: cell-based; conditions: 10 μM, 24 h and 48 h
Method: (§3) FIG. 1: Hematological tumors are more sensitive to GSK126 than solid tumors. (A) Proliferation of B16F10, Huh7 and SMMC7721 cells in GSK126 (10-20 μM) treatment group was monitored by Incucyte S3, with 6 replicates per group; (B) viability of Daudi and THP-1 cells after GSK126 (200 nM-24 μM) treatment for 24 h and 48 h was measured by CCK-8 assay, with 5 replicates per group; (C) western blot analysis (WB) of B16F10 cells 48 h after the treatment without or with GSK126 (6 μM, 12 μM), with H3 used as an internal reference for histone. 5 to 6 replicates were established for each group, with *P<0.05, **P<0.01, and ***P<0.001, and ns for no statistical difference.

hepatoma Huh7 cells = experiment: IncuCyte S3 live-cell proliferation (confluence), Huh7; assay type: cell-based
Method: as §3
(§4) In order to accurately assess the responsiveness of solid tumor cells to EZH2 inhibitors, the effects of GSK126 at different concentrations on the proliferation of melanoma B16F10 cells and hepatoma Huh7 and SMMC-7721 cells were initially detected by IncuCyte S3×Live-Cell Analysis System.
(§5) • (1) Cells in the logarithmic growth phase were digested with 0.25% trypsin and the digestion was terminated by the addition of serum-containing medium. It was then centrifuged at 200 g for 5 min; • (2) The single cell suspension at the corresponding concentration was prepared by a microscopic counting method, and then added into a 96-well culture plate, so that the volume of the culture medium in each well was 150 μL (about 5000 cells). […]

[3] = tested on: Burkitt lymphoma cells (Daudi); experiment: CCK-8 cell proliferation/viability assay, Daudi; assay type: cell-based; conditions: for cell viability inhibited by GSK126, on fatty acid supplementation: with GSK126, CCK-8
Method: as §3
(§6) FIG. 5: Effect of GSK126 on the metabolic profile of Daudi cells. (A) Orthogonal partial least squares discriminant analysis (OPLS-DA) score plot based on metabolic analysis (6 replicates per group). C: control, G: GSK126 treatment. (B) Score plot for validating the OPLS-DA model (R2Y=0.973; Q2Y=0.931). (C) The number of metabolites of each category in metabolomics. […] (E) Viability of Daudi cells after palmitic acid treatment was analyzed by CCK-8 kit (3 replicates per group). 3-6 replicates per group, *P<0.05, **P<0.01.
(§7) FIG. 6: The combination with an SCD1 inhibitor enhances the inhibitory effect of GSK126 on cancer cells. (A) Differential metabolites between DMSO and GSK126-treated Daudi cells. […] Metabolite categories are shown in different colors. […] (C) The mRNA levels of lipid metabolism genes in GSK126-treated Daudi cells were detected by RT-qPCR (3 replicates per group). (D) Viability of GSK126 and palmitinic acid-treated Daudi cells was analyzed by CCK-8 assay kit (5 replicates per group). (E) Viability of GSK126 and stearic acid-treated Daudi cells was analyzed by CCK-8 assay kit (5 replicates per group). (F) Proliferation curves of B16F10 and SMMC7721 cells treated with GSK126 and MF-438 were monitored by IncuCyte S3 (5 replicates per group). (G) CCK-8 assay kit detects the viability of B16F10 and SMMC7721 cells treated with GSK126 and MF-438. CI is calculated by CompuSyn software. CI<0.9 indicates synergism and CI>1.1 indicates antagonism. (H) Schematic diagram of mouse tumor-bearing experiment. (I-J) Tumor weight (I) and tumor growth curve (J) of the mice loaded with B16F10 cells. The tumor volume was measured with a vernier caliper every 2 days. Tumor volume=(length*width*width)/2. (K) Representative tumor pictures of all experimental groups. 3-8 replicates per group, *P<0.05, **P<0.01, ***P<0.001.

melanoma B16F10 cells [4] = experiment: IncuCyte S3 live-cell proliferation (confluence), B16F10; assay type: cell-based
Method: as §3, §4, §5

B16F10 cells = experiment: Apoptosis by flow cytometry and Annexin V live-cell imaging, B16F10; assay type: cell-based; conditions: B16F10, 10 μM
Method: as §1, §2

[5] = tested on: ACLY, FASN, and SCD in SMMC7721; experiment: RT-qPCR and WB of fatty acid synthesis genes, SMMC7721; assay type: cell-based
Description: (§8) FIG. 4: Lipid accumulation in mice after GSK126 treatment. (A) H & E and oil red O staining of the liver tissue sections of the tumor-bearing mice in the control group and the GSK126 treatment group, in which the statistical results of negative or positive staining area were shown on the right (3 replicates per group); (B) TG level in the serum of the tumor-bearing mice in the control group and the GSK126 treatment group (5 replicates per group); (C-D) mRNA (C) and protein (D) levels of the genes related to fatty acid anabolism in the GSK126-treated HCC cells, as detected by RT-qPCR and WB (3 replicates per group). 3 to 5 replicates were established for each group, with *P<0.05, **P<0.01.
(§9) C57BL/6 mice of 6-8 weeks old were subcutaneously implanted with B16F10 cells and treated with GSK126 again. […] Therefore, the expression of the fatty acid synthesis-related genes in GSK126-treated hepatocellular carcinoma (HCC) cell lines SMMC7721 and Huh7 was further detected.

[6] = tested on: ACLY, FASN, and SCD in Huh7; experiment: RT-qPCR and WB of fatty acid synthesis genes, Huh7; assay type: cell-based
Description: as §8, §9

[7] = tested on: H3K27me3 level in B16F10 cells; experiment: Western blot of H3K27me3 in B16F10 cells; assay type: cell-based; conditions: 6 μM, 48 h, WB
Method: as §3

Daudi cells = experiment: UPLC-MS/MS metabolomics of Daudi cells; assay type: cell-based; conditions: GSK126 6 μM vs control
Method: as §6, §7
In order to verify that the lipid metabolism of cancer cells is the key factor affecting the sensitivity of the EZH2 inhibitor, UPLC-MS/MS system was used to analyze the metabolomics of the Daudi cells treated with GSK126 at a concentration of 6 μM (close to the IC50 value). The differences in the metabolome between the cells in the control group and the GSK126 treatment group were obvious by OPLS-DA analysis (sections A and B of FIG. 5). There were 71 metabolites with significant changes and VIP values greater than 1.0.

[8] = tested on: ELOVL2, SCD1, and FASN in Daudi cells; experiment: RT-qPCR of lipid metabolism genes in Daudi cells; assay type: cell-based; conditions: mRNA
Method: as §7, with “***P<0.001. […]” for “***P<0.001.”

hepatoma SMMC-7721 cells = experiment: IncuCyte S3 live-cell proliferation (confluence), SMMC-7721; assay type: cell-based
Method: as §3, §4, §5

[9] = tested on: hematologic cancer cell lines; conditions: most hematologic cancer cell lines; many studies; read-out: IC50 (half-maximal inhibitory concentration); cited from earlier work
[10] = GSK126 at different concentrations (10-20 μM)

CC[C@H](C)n1cc(C)c2c(C(=O)NCc3c(C)cc(C)[nH]c3=O)cc(-c3ccc(N4CCNCC4)nc3)cc21 [GSK126]
cell migration (melanoma cells B16F10): did not effectively inhibit cell migration | levels of fatty acids (five polyunsaturated, one monounsaturated) (melanoma B16F10 cells [1]): increased | proliferation of THP-1 cells [2]: significantly inhibited | cell proliferation (hepatoma Huh7 cells; GSK126 10 μM): less effective | cell proliferation (hepatoma Huh7 cells; [10]): inhibited cell proliferation in a dose-dependent manner | sensitivity of Daudi cells ([3]; 1 μM, CCK-8): very sensitive | proliferation of Daudi cells ([3]; 10 μM, 24 h and 48 h, CCK-8): significantly inhibited | IC50 ([3]; Daudi cells): ~6 µM | cell proliferation (melanoma B16F10 cells [4]; GSK126 10 μM): less effective; also recorded: could not be effectively inhibited | cell proliferation (melanoma B16F10 cells [4]; [10]): inhibited cell proliferation in a dose-dependent manner | induction of apoptosis (B16F10 cells): limited capability to induce apoptosis | mRNA and protein levels of ACLY, FASN, and SCD [5]: significantly elevated | mRNA and protein levels of ACLY, FASN, and SCD [6]: significantly elevated | H3K27me3 level [7]: significantly down-regulated | down-regulated metabolites (Daudi cells): 6 | fatty acids (incl. ricinoleic acid, DPA n-6) (Daudi cells): four fatty acids decreased | metabolites with significant changes and VIP values greater than 1.0 (Daudi cells): 71 | up-regulated metabolites (Daudi cells): 65 | expression of ELOVL2, SCD1, and FASN [8]: did not upregulate | cell proliferation (hepatoma SMMC-7721 cells; GSK126 10 μM): less effective | cell proliferation (hepatoma SMMC-7721 cells; [10]): inhibited cell proliferation in a dose-dependent manner | IC50 [9]: < 1 µM

CCCCCCCCCCCCCCCC(=O)O [palmitic acid]
cell proliferation (viability) on fatty acid addition ([3]; Daudi cells, CCK-8): moderately promoted | cell viability inhibited by GSK126, on fatty acid supplementation ([3]; Daudi cells): recovered the cell viability inhibited by GSK126 to varying degrees

CCCCCCCCCCCCCCCCCC(=O)O [stearic acid]
cell proliferation (viability) on fatty acid addition ([3]; Daudi cells, CCK-8): moderately promoted | cell viability inhibited by GSK126, on fatty acid supplementation ([3]; Daudi cells): recovered the cell viability inhibited by GSK126 to varying degrees
